pKi: −log10 of the molar value.
What was measured:
serotonin 1A receptor = target: T1, serotonin 1A receptor (Rattus norvegicus, UniProt P19327); experiment: Binding test on [3H] 8-hydroxy-dipropylaminotetralin (serotonin 1A receptor); conditions: [3H] 8-OH-DPAT 0.5 nM, receptor fraction of rat hippocampus; read-out: 5HT1a
T1 construct: To the receptor fraction of the hippocampus were added a test compound and 0.5 nM of [^3H]; 8-hydroxy-dipropylaminotetralin; from tissue; host or cells: SD rat hippocampus, membrane (receptor) fraction
T1 sequence (P19327 1-422): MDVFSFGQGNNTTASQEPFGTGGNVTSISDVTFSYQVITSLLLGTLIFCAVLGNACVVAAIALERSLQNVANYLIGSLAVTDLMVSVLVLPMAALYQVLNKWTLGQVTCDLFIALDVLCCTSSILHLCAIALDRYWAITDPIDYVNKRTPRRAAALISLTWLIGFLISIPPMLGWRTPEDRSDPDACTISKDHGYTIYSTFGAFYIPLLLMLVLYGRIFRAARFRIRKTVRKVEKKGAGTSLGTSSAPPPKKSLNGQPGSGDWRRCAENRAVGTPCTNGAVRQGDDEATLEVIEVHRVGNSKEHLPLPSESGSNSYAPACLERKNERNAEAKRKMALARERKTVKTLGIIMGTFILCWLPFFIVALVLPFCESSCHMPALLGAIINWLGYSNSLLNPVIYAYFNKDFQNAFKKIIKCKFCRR

serotonin 2 receptor = serotonin 2 receptor (Rattus norvegicus, UniProt P14842); experiment: Binding test on [3H] ketanserin (serotonin 2 receptor); conditions: [3H] ketanserin 0.3 nM, receptor fraction of rat cerebral cortex; read-out: 5HT2
Sequence of serotonin 2 receptor (P14842 whole entry): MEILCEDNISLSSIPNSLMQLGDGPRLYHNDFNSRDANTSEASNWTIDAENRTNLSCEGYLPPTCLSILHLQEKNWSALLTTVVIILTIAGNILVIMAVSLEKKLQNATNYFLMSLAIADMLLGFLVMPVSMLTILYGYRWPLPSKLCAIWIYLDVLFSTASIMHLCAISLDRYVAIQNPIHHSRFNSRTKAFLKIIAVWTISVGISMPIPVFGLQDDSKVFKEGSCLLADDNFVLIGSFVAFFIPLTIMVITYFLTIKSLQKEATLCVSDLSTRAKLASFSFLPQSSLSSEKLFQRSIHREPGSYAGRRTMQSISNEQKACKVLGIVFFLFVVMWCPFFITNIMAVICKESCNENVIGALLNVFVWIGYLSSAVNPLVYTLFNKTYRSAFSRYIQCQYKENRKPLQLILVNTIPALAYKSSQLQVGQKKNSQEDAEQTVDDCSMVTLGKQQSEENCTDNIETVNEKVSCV

Row | SMILES | pKi (serotonin 1A receptor) | pKi (serotonin 2 receptor)
1 | CCN1CC[C@H](N2CCc3ccccc32)[C@@H](COCc2ccc(F)cc2)C1 (relative stereo) [Example 85, trans-1-[1-ethyl-3-(4-fluorobenzyloxymethyl)piperidin-4-yl]indoline] | 6.77 | 7.25
2 | CN(C)Cc1ccc2c(c1)N(C1CCN(CCc3ccc(F)cc3)CC1)CC2 [Example 200, 1-[1-(4-fluorophenethyl)piperidin-4-yl]-6-N,N-dimethylaminomethylindoline] | 8.32 | 6.63
3 | CC1CC(C2CCN(CCc3ccc(F)cc3)CC2)c2nccnc21 (mixture of isomers) [Example 266, 5-[1-(4-fluorophenethyl)piperidin-4-yl]-7-methyl-5,6-dihydro-5H-cyclopentapyrazine] | 7.50 | 7.65
4 | COc1ccc(CCN2CCC(N3CCc4ccc(F)cc43)CC2)cc1 [Example 229, 1-[1-(4-methoxyphenethyl)piperidin-4-yl]-6-fluoroindoline] | 8.60 | < 6.70
5 | O=c1ccc(C(O)c2ccc3c(c2)N(C2CCN(CCc4ccc(F)cc4)CC2)CC3)c[nH]1 (centres unmarked) [Example 190, 1-[1-(4-fluorophenethyl)piperidin-4-yl]-6-[1-hydroxy-1-(2-pyridon-5-yl)methyl]indoline] | 9.31 | 9.48
6 | Cn1cccc1-c1ccc2c(c1)N(C1CCN(CCc3ccc(F)cc3)CC1)CC2 [Example 173, 1-[1-(4-fluorophenethyl)piperidin-4-yl]-6-(1-methylpyrrol-2-yl)indoline] | 10.22 | 7.15
7 | Fc1ccc(CCN2CCC(N3CCc4ccc(-c5ccc(F)cc5)cc43)CC2)cc1 [Example 201, 1-[1-(4-fluorophenethyl)piperidin-4-yl]-6-(4-fluorophenyl)indoline] | 8.15 | < 6.70
8 | Fc1ccc(CCN2CCC(N3CCc4ccc(Cl)nc43)CC2)c(F)c1 [Example 262, 1-[1-(2,4-difluorophenethyl)piperidin-4-yl]-6-chloro-7-azaindoline] | 8.82 | 8.68
9 | OCc1ccc(CCN2CCC(N3CCc4ccccc43)CC2)cc1 [Example 23, 1-[1-(4-hydroxymethylphenethyl)piperidin-4-yl]indoline] | 8.13 | 7.84
10 | OCc1ccc2c(c1)N(C1CCN(CCc3ccc(F)cc3)CC1)CC2 [Example 136, 1-[1-(4-fluorophenethyl)piperidin-4-yl]-6-hydroxymethylindoline] | 8.47 | 8.21
11 | OC1(c2ccc3c(c2)N(C2CCN(CCc4ccc(F)cc4)CC2)CC3)CCCC1 [Example 141, 1-[1-(4-fluorophenethyl)piperidin-4-yl]-6-(1-hydroxycyclopentyl)indoline] | 8.52 | 6.47
12 | COc1ncccc1Cc1ccc2c(c1)N(C1CCN(CCc3ccc(F)cc3)CC1)CC2 [Example 185, 1-[1-(4-fluorophenethyl)piperidin-4-yl]-6-[1-(2-methoxypyridin-3-yl)methyl]indoline] | 7.84 | 8.33
13 | Fc1ccc(OCCCN2CCC(N3CCc4ccccc43)CC2)cc1 [Example 69, 1-{1-[3-(4-fluorophenoxy)propyl]piperidin-4-yl}indoline] | 8.01 | 7.52
14 | Nc1ccc(CCN2CCC(N3CCc4ccccc43)CC2)cc1 [Example 30, 1-[1-(4-aminophenethyl)piperidin-4-yl]indoline] | 7.66 | 7.80
15 | CCC(O)c1ccc2c(c1)N(C1CCN(CCc3ccc(F)cc3)CC1)CC2 (centres unmarked) [Example 138, 1-[1-(4-fluorophenethyl)piperidin-4-yl]-6-(1-hydroxypropyl)indoline] | 8.70 | 8.23
16 | N#Cc1ccc2c(c1)N(C1CCN(CCc3ccc(F)cc3)CC1)CC2 [Example 124, 1-[1-(4-fluorophenethyl)piperidin-4-yl]-6-cyanoindoline] | 8.96 | 7.34

Reference: patent publication US6579881B2 (Eisai Co., Ltd., priority 1997, dated 2003)
